# ± gives the standard deviation of the averaged measurements.
# How the values were obtained:
# IMATINIB = compound: Cc1ccc(NC(=O)c2ccc(CN3CCN(C)CC3)cc2)cc1Nc1nccc(-c2cccnc2)n1 [IMATINIB]; test: surviving fraction relative to DMSO-only wells; higher = less growth inhibition; conditions: exposure time: 5 days
# Summary of the method: (§1)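 After seeding at 250–500 cells per well in 384-well plates and a 24-hour wait, log-phase tumour cell lines were exposed without interruption for five days to inhibitors at 0.5, 1, 5, 10, 50, 100, 500 and 1000 nM. CellTiter-Glo luminescence was recorded after 10 minutes at room temperature. Viability is reported as surviving fraction, the luminescence normalised to the median of DMSO-only wells.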
# MK-1775 = compound: C=CCn1c(=O)c2cnc(Nc3ccc(N4CCN(C)CC4)cc3)nc2n1-c1cccc(C(C)(C)O)n1 [MK-1775]; test: as above; conditions: exposure time: 5 days
# Summary of the method: as §1
test system,measurement,setting,value
S68 BREAST,surviving fraction,IMATINIB; 0.5 nM,0.783 ± 0.22
same,surviving fraction,IMATINIB; 1 nM,0.996 ± 0.18
same,surviving fraction,IMATINIB; 5 nM,1.13 ± 0.17
same,surviving fraction,IMATINIB; 50 nM,1.25 ± 0.47
same,surviving fraction,IMATINIB; 100 nM,1.28 ± 0.29
same,surviving fraction,IMATINIB; 500 nM,1.11 ± 0.28
same,surviving fraction,IMATINIB; 1000 nM,0.868 ± 0.081
same,surviving fraction,MK-1775; 0.5 nM,1.17 ± 0.41
same,surviving fraction,MK-1775; 1 nM,1.18 ± 0.27
same,surviving fraction,MK-1775; 5 nM,1.03 ± 0.11
same,surviving fraction,MK-1775; 10 nM,0.848 ± 0.13
same,surviving fraction,MK-1775; 50 nM,0.663 ± 0.093
same,surviving fraction,MK-1775; 100 nM,0.329 ± 0.048
same,surviving fraction,MK-1775; 500 nM,0.101 ± 0.008
same,surviving fraction,MK-1775; 1000 nM,0.0703 ± 0.011
HCC78 LUNG,surviving fraction,IMATINIB; 0.5 nM,0.936 ± 0.094
same,surviving fraction,IMATINIB; 1 nM,1.03 ± 0.16
same,surviving fraction,IMATINIB; 5 nM,0.997 ± 0.043
same,surviving fraction,IMATINIB; 50 nM,1.04 ± 0.072
same,surviving fraction,IMATINIB; 500 nM,1.34 ± 0.16
same,surviving fraction,IMATINIB; 1000 nM,1.18 ± 0.091
same,surviving fraction,MK-1775; 0.5 nM,0.883 ± 0.12
same,surviving fraction,MK-1775; 1 nM,0.875 ± 0.14
same,surviving fraction,MK-1775; 5 nM,1.07 ± 0.32
same,surviving fraction,MK-1775; 10 nM,1.02 ± 0.13
same,surviving fraction,MK-1775; 50 nM,0.827 ± 0.15
same,surviving fraction,MK-1775; 100 nM,0.839 ± 0.08
same,surviving fraction,MK-1775; 500 nM,0.105 ± 0.022
same,surviving fraction,MK-1775; 1000 nM,0.0803 ± 0.02
CASKI CERVIX,surviving fraction,IMATINIB; 0.5 nM,0.935 ± 0.028
same,surviving fraction,IMATINIB; 1 nM,0.9783 ± 0.0081
same,surviving fraction,IMATINIB; 5 nM,1.01 ± 0.048
same,surviving fraction,IMATINIB; 10 nM,0.962 ± 0.029
same,surviving fraction,IMATINIB; 50 nM,1.06 ± 0.042
same,surviving fraction,IMATINIB; 100 nM,1.06 ± 0.06
same,surviving fraction,IMATINIB; 500 nM,0.919 ± 0.037
same,surviving fraction,IMATINIB; 1000 nM,1 ± 0.04
same,surviving fraction,MK-1775; 0.5 nM,0.887 ± 0.032
same,surviving fraction,MK-1775; 1 nM,0.916 ± 0.071
same,surviving fraction,MK-1775; 5 nM,0.99 ± 0.044
same,surviving fraction,MK-1775; 10 nM,0.919 ± 0.049
same,surviving fraction,MK-1775; 50 nM,0.479 ± 0.022
same,surviving fraction,MK-1775; 100 nM,0.187 ± 0.012
same,surviving fraction,MK-1775; 500 nM,0.0533 ± 0.0051
same,surviving fraction,MK-1775; 1000 nM,0.0453 ± 0.0068
CADOES1 SOFT TISSUE,surviving fraction,IMATINIB; 0.5 nM,0.94 ± 0.11
same,surviving fraction,IMATINIB; 1 nM,0.897 ± 0.035
same,surviving fraction,IMATINIB; 5 nM,0.926 ± 0.08
same,surviving fraction,IMATINIB; 10 nM,0.872 ± 0.012
same,surviving fraction,IMATINIB; 100 nM,0.948 ± 0.02
same,surviving fraction,IMATINIB; 500 nM,1.03 ± 0.085
same,surviving fraction,IMATINIB; 1000 nM,1.05 ± 0.14
same,surviving fraction,MK-1775; 0.5 nM,0.978 ± 0.014
same,surviving fraction,MK-1775; 1 nM,0.929 ± 0.11
same,surviving fraction,MK-1775; 5 nM,0.95 ± 0.036
same,surviving fraction,MK-1775; 10 nM,0.887 ± 0.049
same,surviving fraction,MK-1775; 50 nM,0.92 ± 0.094
same,surviving fraction,MK-1775; 100 nM,0.832 ± 0.065
same,surviving fraction,MK-1775; 500 nM,0.444 ± 0.034
same,surviving fraction,MK-1775; 1000 nM,0.218 ± 0.017
LNCAP PROSTATE,surviving fraction,IMATINIB; 1 nM,1.1 ± 0.1
same,surviving fraction,IMATINIB; 5 nM,0.968 ± 0.068
same,surviving fraction,IMATINIB; 50 nM,0.967 ± 0.14
same,surviving fraction,IMATINIB; 100 nM,0.986 ± 0.049
same,surviving fraction,MK-1775; 0.5 nM,0.99 ± 0.088
same,surviving fraction,MK-1775; 1 nM,0.951 ± 0.14
same,surviving fraction,MK-1775; 5 nM,0.995 ± 0.082
same,surviving fraction,MK-1775; 10 nM,0.921 ± 0.14
same,surviving fraction,MK-1775; 50 nM,0.984 ± 0.065
same,surviving fraction,MK-1775; 100 nM,0.544 ± 0.073
same,surviving fraction,MK-1775; 500 nM,0.161 ± 0.012
same,surviving fraction,MK-1775; 1000 nM,0.0767 ± 0.013
HCC1806 BREAST,surviving fraction,IMATINIB; 0.5 nM,1.06 ± 0.044
same,surviving fraction,IMATINIB; 1 nM,1.05 ± 0.093
same,surviving fraction,IMATINIB; 5 nM,1.12 ± 0.07
same,surviving fraction,IMATINIB; 10 nM,1.16 ± 0.021
same,surviving fraction,IMATINIB; 50 nM,1.15 ± 0.15
same,surviving fraction,IMATINIB; 100 nM,1.24 ± 0.08
same,surviving fraction,IMATINIB; 500 nM,0.983 ± 0.077
same,surviving fraction,IMATINIB; 1000 nM,0.956 ± 0.15
same,surviving fraction,MK-1775; 0.5 nM,1.05 ± 0.047
same,surviving fraction,MK-1775; 1 nM,0.996 ± 0.076
same,surviving fraction,MK-1775; 5 nM,1.13 ± 0.032
same,surviving fraction,MK-1775; 10 nM,1.02 ± 0.14
same,surviving fraction,MK-1775; 50 nM,0.631 ± 0.082
same,surviving fraction,MK-1775; 100 nM,0.303 ± 0.036
same,surviving fraction,MK-1775; 500 nM,0.049 ± 0.0061
same,surviving fraction,MK-1775; 1000 nM,0.0403 ± 0.0015
MDAMB468 BREAST,surviving fraction,IMATINIB; 0.5 nM,0.997 ± 0.075
same,surviving fraction,IMATINIB; 1 nM,1.05 ± 0.059
same,surviving fraction,IMATINIB; 5 nM,1.01 ± 0.02
same,surviving fraction,IMATINIB; 10 nM,1.06 ± 0.066
same,surviving fraction,IMATINIB; 50 nM,1.09 ± 0.081
same,surviving fraction,IMATINIB; 100 nM,1.18 ± 0.032
same,surviving fraction,IMATINIB; 500 nM,1.103 ± 0.01
same,surviving fraction,IMATINIB; 1000 nM,1.06 ± 0.06
same,surviving fraction,MK-1775; 0.5 nM,1.06 ± 0.041
same,surviving fraction,MK-1775; 1 nM,1.05 ± 0.049
same,surviving fraction,MK-1775; 5 nM,1.07 ± 0.089
same,surviving fraction,MK-1775; 10 nM,1.02 ± 0.043
same,surviving fraction,MK-1775; 50 nM,1.12 ± 0.04
same,surviving fraction,MK-1775; 100 nM,0.985 ± 0.029
same,surviving fraction,MK-1775; 500 nM,0.259 ± 0.026
same,surviving fraction,MK-1775; 1000 nM,0.0773 ± 0.0029
JURKAT HAEMATOPOIETIC AND LYMPHOID TISSUE,surviving fraction,IMATINIB; 0.5 nM,1.05 ± 0.031
same,surviving fraction,IMATINIB; 1 nM,1.07 ± 0.031
same,surviving fraction,IMATINIB; 5 nM,0.986 ± 0.034
same,surviving fraction,IMATINIB; 50 nM,0.994 ± 0.032
same,surviving fraction,IMATINIB; 100 nM,1.02 ± 0.038
same,surviving fraction,IMATINIB; 500 nM,1.03 ± 0.039
same,surviving fraction,IMATINIB; 1000 nM,1.04 ± 0.041
same,surviving fraction,MK-1775; 0.5 nM,1.09 ± 0.017
same,surviving fraction,MK-1775; 1 nM,1.11 ± 0.016
same,surviving fraction,MK-1775; 5 nM,1.08 ± 0.019
same,surviving fraction,MK-1775; 10 nM,1.099 ± 0.0087
same,surviving fraction,MK-1775; 50 nM,0.986 ± 0.038
same,surviving fraction,MK-1775; 100 nM,0.772 ± 0.036
same,surviving fraction,MK-1775; 500 nM,0.039 ± 0.001
same,surviving fraction,MK-1775; 1000 nM,0.039
KPD BONE,surviving fraction,IMATINIB; 0.5 nM,1.077 ± 0.008
same,surviving fraction,IMATINIB; 1 nM,0.983 ± 0.068
same,surviving fraction,IMATINIB; 5 nM,1.11 ± 0.043
same,surviving fraction,IMATINIB; 10 nM,1.1 ± 0.082
same,surviving fraction,IMATINIB; 50 nM,1.16 ± 0.067
same,surviving fraction,IMATINIB; 100 nM,1.05 ± 0.097
same,surviving fraction,IMATINIB; 1000 nM,0.99 ± 0.023
same,surviving fraction,MK-1775; 0.5 nM,0.945 ± 0.12
same,surviving fraction,MK-1775; 1 nM,0.91 ± 0.02
same,surviving fraction,MK-1775; 5 nM,0.971 ± 0.029
same,surviving fraction,MK-1775; 10 nM,0.949 ± 0.031
same,surviving fraction,MK-1775; 50 nM,0.954 ± 0.034
same,surviving fraction,MK-1775; 100 nM,0.808 ± 0.039
same,surviving fraction,MK-1775; 500 nM,0.293 ± 0.0046
same,surviving fraction,MK-1775; 1000 nM,0.175 ± 0.009
MHM BONE,surviving fraction,IMATINIB; 0.5 nM,1.07 ± 0.032
same,surviving fraction,IMATINIB; 1 nM,1.03 ± 0.059
same,surviving fraction,IMATINIB; 5 nM,1.09 ± 0.043
same,surviving fraction,IMATINIB; 10 nM,1.09 ± 0.045
same,surviving fraction,IMATINIB; 500 nM,1.08 ± 0.029
same,surviving fraction,MK-1775; 0.5 nM,0.981 ± 0.02
same,surviving fraction,MK-1775; 1 nM,0.9753 ± 0.0067
same,surviving fraction,MK-1775; 5 nM,1.04 ± 0.015
same,surviving fraction,MK-1775; 10 nM,1.01 ± 0.033
same,surviving fraction,MK-1775; 50 nM,1.02 ± 0.025
same,surviving fraction,MK-1775; 100 nM,1.03 ± 0.025
same,surviving fraction,MK-1775; 500 nM,0.638 ± 0.013
same,surviving fraction,MK-1775; 1000 nM,0.5597 ± 0.00058
A549 LUNG,surviving fraction,IMATINIB; 0.5 nM,1.09 ± 0.035
same,surviving fraction,IMATINIB; 1 nM,1.07 ± 0.026
same,surviving fraction,IMATINIB; 5 nM,1.11 ± 0.041
same,surviving fraction,IMATINIB; 10 nM,1.09 ± 0.041
same,surviving fraction,IMATINIB; 50 nM,1.11 ± 0.049
same,surviving fraction,IMATINIB; 100 nM,1.1 ± 0.033
same,surviving fraction,IMATINIB; 1000 nM,1.12 ± 0.016
same,surviving fraction,MK-1775; 0.5 nM,1.02 ± 0.051
same,surviving fraction,MK-1775; 1 nM,0.985 ± 0.059
same,surviving fraction,MK-1775; 5 nM,0.995 ± 0.057
same,surviving fraction,MK-1775; 10 nM,0.998 ± 0.032
same,surviving fraction,MK-1775; 50 nM,1.05 ± 0.037
same,surviving fraction,MK-1775; 100 nM,1.08 ± 0.047
same,surviving fraction,MK-1775; 500 nM,0.816 ± 0.02
same,surviving fraction,MK-1775; 1000 nM,0.38 ± 0.011

# Reference: the supplement of paper PMC6045584
